Reference: ChEMBL document CHEMBL4619785, “Advantages of the Parent Nucleoside GS-441524 over Remdesivir for Covid-19 Treatment” (ACS Med Chem Lett, 2020)

Tests used:
[1] = system: Middle East respiratory syndrome-related coronavirus; experiment: Antiviral activity against Middle East respiratory syndrome coronavirus infected in primary HAE cells; assay type: functional, organism-based
[2] = Cytotoxic activity in HAE cells; assay type: cell-based; settings: human
Feline coronavirus = experiment: Antiviral activity against Feline corona virus infected in CRFK cells; assay type: functional, organism-based; settings: Alphacoronavirus 1, CRFK
SARS-CoV = experiment: Antiviral activity against SARS coronavirus infected in primary HAE cells; assay type: functional, organism-based; settings: Severe acute respiratory syndrome-related coronavirus
in vivo [3] = settings: mouse
in vivo [4] = settings: rhesus monkey, serum, iv

## N#C[C@@]1(c2ccc3c(N)ncnn23)O[C@H](COP(=O)(O)OP(=O)(O)OP(=O)(O)O)[C@@H](O)[C@H]1O [RDV-TP]
[1]
  EC50: 860 nM
[2]
  CC50: > 100000 nM
Feline coronavirus
  EC50: 780 nM
SARS-CoV
  EC50: 180 nM

## CCC(CC)COC(=O)[C@H](C)N[P@](=O)(OC[C@H]1O[C@@](C#N)(c2ccc3c(N)ncnn23)[C@H](O)[C@@H]1O)Oc1ccccc1 [REMDESIVIR]
In vivo [3]
  half-life: 25 min
[1]
  EC50: 74 nM
[2]
  CC50: > 10000 nM
In vivo [4]
  half-life: 24 min
SARS-CoV
  EC50: 69 nM
